Values joined by “and” are separate entries in the source; they are usually repeats but may differ in a detail not shown here. Equal values may be shown once.
Assays:
[1] = molecular target: T1, rat adrenergic α1B receptor (Rattus norvegicus, UniProt P15823); assay: Radioligand binding, adrenergic α1B ([3H]Prazosin); settings: 0.1 μM compound; for inhibition at 0.1 µM: read-out: Percentage inhibition of ligand binding, Adrenergic α1B
T1 construct: rat adrenergic α1B receptor obtained from Wistar Rat liver; from tissue; host or cells: Wistar rat liver
T1 sequence (P15823 1-515): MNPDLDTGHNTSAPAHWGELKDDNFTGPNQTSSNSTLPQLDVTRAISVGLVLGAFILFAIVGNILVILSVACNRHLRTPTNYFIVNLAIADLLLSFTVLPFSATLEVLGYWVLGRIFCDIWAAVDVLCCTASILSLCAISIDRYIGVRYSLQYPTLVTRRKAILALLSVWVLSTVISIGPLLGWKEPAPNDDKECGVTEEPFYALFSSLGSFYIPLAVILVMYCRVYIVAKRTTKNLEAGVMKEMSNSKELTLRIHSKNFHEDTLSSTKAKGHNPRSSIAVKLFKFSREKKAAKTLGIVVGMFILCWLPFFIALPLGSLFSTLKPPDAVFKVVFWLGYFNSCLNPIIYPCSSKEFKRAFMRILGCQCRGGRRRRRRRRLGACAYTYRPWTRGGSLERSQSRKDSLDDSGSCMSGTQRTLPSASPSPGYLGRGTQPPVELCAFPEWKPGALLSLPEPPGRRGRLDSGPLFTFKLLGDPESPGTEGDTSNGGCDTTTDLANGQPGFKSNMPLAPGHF
Summary of the method: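 Incubation ran 60 min at 25 °C in Tris-HCl buffer (50 mM, pH 7.4, 0.5 mM EDTA) with Wistar rat liver α1B receptor. 10 μM phentolamine set non-specific binding.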

[2] = molecular target: T2, human recombinant adrenergic α1D receptor (Homo sapiens, UniProt P25100); assay: Radioligand binding, adrenergic α1D ([3H]Prazosin); settings: 0.1 μM compound; for inhibition at 0.1 µM: read-out: Percentage inhibition of ligand binding, Adrenergic α1D
T2 construct: expressed in transfected cells; host or cells: HEK-293
T2 sequence (P25100 1-572): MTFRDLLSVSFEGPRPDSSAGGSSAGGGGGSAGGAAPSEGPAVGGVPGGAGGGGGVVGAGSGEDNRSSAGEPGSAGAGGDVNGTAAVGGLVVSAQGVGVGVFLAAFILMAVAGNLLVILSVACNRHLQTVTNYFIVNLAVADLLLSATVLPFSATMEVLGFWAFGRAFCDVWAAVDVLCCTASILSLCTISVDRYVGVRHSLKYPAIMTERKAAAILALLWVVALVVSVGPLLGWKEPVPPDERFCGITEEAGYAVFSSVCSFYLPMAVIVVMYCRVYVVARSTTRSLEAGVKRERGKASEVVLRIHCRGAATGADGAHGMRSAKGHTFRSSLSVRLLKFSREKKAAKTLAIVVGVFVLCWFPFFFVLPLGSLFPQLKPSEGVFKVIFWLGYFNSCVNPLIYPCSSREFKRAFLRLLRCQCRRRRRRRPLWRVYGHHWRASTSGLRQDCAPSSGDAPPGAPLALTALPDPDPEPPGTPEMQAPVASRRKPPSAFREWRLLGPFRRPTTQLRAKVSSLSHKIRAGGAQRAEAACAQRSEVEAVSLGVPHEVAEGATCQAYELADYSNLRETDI
Method: Compounds were incubated with 0.6 nM [3H]Prazosin for 60 min at 25° C. Non-specific binding was estimated in the presence of 10 μM phentolamine. Receptor proteins were filtered and washed, the filters were then counted to determine [3H]Prazosin specifically bound. […] Biochemical assay results are presented as the percent inhibition of specific binding in Table B1.

[3] = molecular target: T3, human recombinant adrenergic α2A receptor (Homo sapiens, UniProt P08913); assay: Radioligand binding, adrenergic α2A ([3H]MK-912); settings: for Percentage inhibition of ligand binding, Adrenergic α2A / inhibition at 0.1 µM: 0.1 μM compound; for Percentage inhibition of ligand binding, Adrenergic α2A: 0.1 µM
T3 construct: expressed in transfected cells; host or cells: insect Sf9 cells
T3 sequence (P08913 1-465): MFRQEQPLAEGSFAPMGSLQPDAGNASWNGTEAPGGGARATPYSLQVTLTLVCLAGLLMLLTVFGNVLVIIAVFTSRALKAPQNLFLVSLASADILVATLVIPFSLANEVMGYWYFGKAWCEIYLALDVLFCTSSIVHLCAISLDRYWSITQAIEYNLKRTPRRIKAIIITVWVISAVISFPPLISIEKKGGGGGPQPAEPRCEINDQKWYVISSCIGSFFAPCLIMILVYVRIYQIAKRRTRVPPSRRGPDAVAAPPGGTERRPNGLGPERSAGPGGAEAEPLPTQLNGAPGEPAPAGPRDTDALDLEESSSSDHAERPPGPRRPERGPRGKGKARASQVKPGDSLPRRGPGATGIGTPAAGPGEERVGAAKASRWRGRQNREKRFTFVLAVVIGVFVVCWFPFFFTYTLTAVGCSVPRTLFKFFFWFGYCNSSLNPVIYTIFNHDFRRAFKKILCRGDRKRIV
Summary of the method: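 In 50 mM Tris-HCl (pH 7.4) containing 12.5 mM MgCl2 and 2 mM EDTA, Sf9-expressed receptor was exposed to test compound plus 1 nM [3H]MK-912 at 25 °C for 60 min. Specific binding, corrected using 10 μM WB-4101, was quantified by filtration and counting and expressed as percent inhibition.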

[4] = molecular target: T4, human recombinant adrenergic α2B receptor (Homo sapiens, UniProt P18089); assay: Radioligand binding, adrenergic α2B ([3H]Rauwolscine); settings: 0.1 μM compound; for inhibition at 0.1 µM: read-out: Percentage inhibition of ligand binding, Adrenergic α2B
T4 construct: expressed in transfected cells; host or cells: CHO-K1
T4 sequence (P18089 1-450): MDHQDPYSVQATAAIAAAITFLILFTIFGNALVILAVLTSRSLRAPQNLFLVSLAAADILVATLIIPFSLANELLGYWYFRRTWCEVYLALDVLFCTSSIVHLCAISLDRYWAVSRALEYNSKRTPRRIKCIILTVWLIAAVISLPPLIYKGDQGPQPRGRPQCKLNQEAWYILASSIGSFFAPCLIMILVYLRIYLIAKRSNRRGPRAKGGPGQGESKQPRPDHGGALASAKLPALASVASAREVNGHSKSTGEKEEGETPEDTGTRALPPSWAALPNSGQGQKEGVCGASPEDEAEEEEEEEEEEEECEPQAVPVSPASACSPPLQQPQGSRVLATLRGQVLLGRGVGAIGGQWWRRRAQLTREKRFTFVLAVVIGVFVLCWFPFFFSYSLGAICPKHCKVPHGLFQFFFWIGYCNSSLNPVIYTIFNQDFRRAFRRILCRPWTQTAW
Summary of the method: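 Readout: percent inhibition of specific [3H]Rauwolscine binding, measured by filtration and counting. Conditions: CHO-K1 cell-expressed receptor, 2.5 nM radioligand, 60 min, 25° C, Tris-HCl pH 7.4 buffer with MgCl2, EDTA, BSA. Non-specific binding: 10 μM Prazosin.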

[5] = read-out: Percentage inhibition of ligand binding, Adrenergic α2A

| SMILES | inhibition at 0.1 µM [1] [%] | inhibition at 0.1 µM [2] [%] | Ki [3] [nM] | inhibition at 0.03 µM ([3]; 0.03 μM compound, read-out: Percentage inhibition of ligand binding, Adrenergic α2A) [%] | Percentage inhibition of ligand binding, Adrenergic α2A [3] [%] | inhibition at 0.1 µM [3, 5] [%] | inhibition at 0.1 µM [4] [%] | Percentage inhibition of ligand binding, Adrenergic α1B ([1]; 0.1 µM) [%] | Percentage inhibition of ligand binding, Adrenergic α1D ([2]; 0.1 µM) [%] | Percentage inhibition of ligand binding, Adrenergic α2B ([4]; 0.1 µM) |
| --- | --- | --- | --- | --- | --- | --- | --- | --- | --- | --- |
| C/C(=C\n1c2c(c3cc(C)ccc31)CN(C)CC2)c1ccc(Cl)c(Cl)c1 [compound 243] | 58 | 45 | 3.86 | 73 | 98 | 90 | 105 |  |  |  |
| C/C(=C\n1c2c(c3cc(Cl)ccc31)CCN(C)CC2)c1cccnc1 [compound 244] | 78 | 42 |  |  |  | 76 | 99 |  |  |  |
| C/C(=C\n1c2c(c3cc(C)ccc31)CCN(C)CC2)c1cccnc1 [compound 245] | 69 | 35 |  |  |  | 65 | 96 |  |  |  |
| COc1ccc(/C(C)=C/n2c3c(c4cc(Cl)ccc42)CCN(C)CC3)cc1 [compound 246] | 82 | 68 |  |  |  | 86 | 101 |  |  |  |
| C/C(=C/n1c2c(c3cc(Cl)ccc31)CCN(C)CC2)c1cccc(F)c1 [compound 247] | 95 | 81 |  |  |  | 96 | 89 |  |  |  |
| C/C(=C\n1c2c(c3cc(Cl)ccc31)CCN(C)CC2)c1cccc(F)c1 [compound 248] | 76 | 31 |  |  |  | 90 | 95 |  |  |  |
| C/C(=C/n1c2c(c3cc(C)ccc31)CCN(C)CC2)c1cccc(F)c1 [compound 249] | 95 | 82 |  |  |  | 98 | 98 |  |  |  |
| C/C(=C\n1c2c(c3cc(C)ccc31)CN(C)CC2)c1cccnc1 [compound 250] | 37 | 22 |  |  |  | 62 | 105 |  |  |  |
| COc1ccc(/C(C)=C/n2c3c(c4cc(C)ccc42)CCN(C)CC3)cc1 [compound 251] | 89 | 53 |  |  |  | 85 | 101 |  |  |  |
| C/C(=C/n1c2c(c3cc(Cl)ccc31)CN(C)CC2)c1cc(F)c(F)cc1Cl [compound 252] | 36 | 13 |  |  |  | 66 | 52 |  |  |  |
| CN1CCc2c(c3cc(Cl)c(Cl)cc3n2CC(C)(O)c2ccncc2)C1 (stereo not shown) [compound 253] | 54 | 18 |  |  | 64 | 44 |  | 55 | 24 | 64% and 86% |
| Cc1ccc2c(c1)c1c(n2CC(C)c2ccncc2)CCN(C)C1 (stereo not shown) [compound 255] | 55 | 43 |  |  |  | 63 | 96 |  |  |  |
| Cc1ccc2c(c1)c1c(n2C#Cc2cccc(N(C)C)c2)CCN(C)C1 [compound 256] | 47 | 23 |  |  |  | 55 | 58 |  |  |  |
| C/C(=C\n1c2c(c3cc(Cl)ccc31)CN(C)C(C)C2)c1ccc(C)nc1 (stereo not shown) [compound 257] | 51 | 24 |  |  |  | 84 | 100 |  |  |  |
| C/C(=C/n1c2c(c3cc(C)ccc31)CN(C)CC2)c1ccc(F)cc1F [compound 258] | 93 | 74 |  |  |  | 94 | 99 |  |  |  |
| C/C(=C\n1c2c(c3cc(C)ccc31)CN(C)CC2)c1ccccn1 [compound 259] | 71 | 53 |  |  |  | 82 | 98 |  |  |  |
| Cc1ccc2c(c1)c1c(n2CC(C)(C)c2ccncc2)CCN(C)C1 [compound 260] | 45 | 26 |  |  |  | 54 | 92 |  |  |  |
| C/C(=C\n1c2c(c3cc(C)ccc31)CN(C)CC2)C1CCCCC1 [compound 261] | 50 | 30 |  |  |  | 84 | 84 |  |  |  |
| C/C=C(/c1ccccc1)n1c2c(c3cc(C)ccc31)CN(C)CC2 [compound 262] | 52 | 35 |  |  |  | 87 | 74 |  |  |  |
| Cc1ccc2c(c1)c1c(n2CC(O)(c2ccccc2)c2ccccc2)CCN(C)C1 [compound 263] | 1 | 6 |  |  |  | 61 | 54 |  |  |  |
| Cc1ccc2c(c1)c1c(n2C#Cc2ccncc2)CCN(C)C1 [compound 264] | 79 | 46 |  |  |  | 81 | 82 |  |  |  |
| C/C(=C\c1ccccc1)n1c2c(c3cc(C)ccc31)CN(C)CC2 [compound 265] | 50 | 30 |  |  |  | 67 | 70 |  |  |  |
| COc1ccc(/C(C)=C/n2c3c(c4cc(C)ccc42)CN(C)CC3)cn1 [compound 266] | 63 | 72 |  |  |  | 62 | 92 |  |  |  |
| Cc1ccc2c(c1)c1c(n2C=C(c2ccccc2)c2ccccc2)CCN(C)C1 [compound 267] | 7 | 26 |  |  |  | 63 | 85 |  |  |  |
| CSc1cccc(/C(C)=C/n2c3c(c4cc(C)ccc42)CN(C)CC3)c1 [compound 268] | 57 | 39 |  |  |  | 90 | 94 |  |  |  |
